Target: T1, Rho kinase II (ROKα) (Rattus norvegicus, UniProt Q62868)
T1 construct: purchased Upstate Biotechnology
Assay: Inhibition of recombinant Rho kinase II (ROKα), 33P phosphate uptake into S6 substrate peptide
Type: biochemical
Details: recombinant Rho kinase II (Upstate Biotechnology), S6 phosphate-acceptor peptide, 33P-labelled ATP, 20 min at 37° C.
Protocol: The inhibition of the enzyme is investigated in an in vitro assay with recombinant Rho kinase II. The vessel-relaxing action is determined using phenylephrin-induced contractions of isolated rings of the saphenous artery of rabbits.
Inhibition of Recombinant Rho Kinase II (ROKα)
The activity of Rho kinase is determined by the uptake of ^33P phosphate into a substrate peptide. To this end, commercially available Rho kinase II (Upstate Biotechnology) is pre-incubated at 37° C. in the presence of the S6 phosphate-acceptor peptide with the test substances or a solvent control for 10 min. The kinase reaction is then started by addition of ^33P-labelled ATP. After 20 min at 37° C., the reaction is stopped by addition of H3PO4. Aliquots are pipetted onto filters and the filters are washed and then covered with scintillator. The radioactivity of the ^33P-labelled peptides bound to the filter is measured in a Micro-Beta counter. The IC50 value corresponds to the concentration of a test substance at which the Rho-kinase-catalysed uptake of ^33P into the peptide is inhibited by 50%, compared to a solvent control.

T1 sequence (Q62868 whole entry): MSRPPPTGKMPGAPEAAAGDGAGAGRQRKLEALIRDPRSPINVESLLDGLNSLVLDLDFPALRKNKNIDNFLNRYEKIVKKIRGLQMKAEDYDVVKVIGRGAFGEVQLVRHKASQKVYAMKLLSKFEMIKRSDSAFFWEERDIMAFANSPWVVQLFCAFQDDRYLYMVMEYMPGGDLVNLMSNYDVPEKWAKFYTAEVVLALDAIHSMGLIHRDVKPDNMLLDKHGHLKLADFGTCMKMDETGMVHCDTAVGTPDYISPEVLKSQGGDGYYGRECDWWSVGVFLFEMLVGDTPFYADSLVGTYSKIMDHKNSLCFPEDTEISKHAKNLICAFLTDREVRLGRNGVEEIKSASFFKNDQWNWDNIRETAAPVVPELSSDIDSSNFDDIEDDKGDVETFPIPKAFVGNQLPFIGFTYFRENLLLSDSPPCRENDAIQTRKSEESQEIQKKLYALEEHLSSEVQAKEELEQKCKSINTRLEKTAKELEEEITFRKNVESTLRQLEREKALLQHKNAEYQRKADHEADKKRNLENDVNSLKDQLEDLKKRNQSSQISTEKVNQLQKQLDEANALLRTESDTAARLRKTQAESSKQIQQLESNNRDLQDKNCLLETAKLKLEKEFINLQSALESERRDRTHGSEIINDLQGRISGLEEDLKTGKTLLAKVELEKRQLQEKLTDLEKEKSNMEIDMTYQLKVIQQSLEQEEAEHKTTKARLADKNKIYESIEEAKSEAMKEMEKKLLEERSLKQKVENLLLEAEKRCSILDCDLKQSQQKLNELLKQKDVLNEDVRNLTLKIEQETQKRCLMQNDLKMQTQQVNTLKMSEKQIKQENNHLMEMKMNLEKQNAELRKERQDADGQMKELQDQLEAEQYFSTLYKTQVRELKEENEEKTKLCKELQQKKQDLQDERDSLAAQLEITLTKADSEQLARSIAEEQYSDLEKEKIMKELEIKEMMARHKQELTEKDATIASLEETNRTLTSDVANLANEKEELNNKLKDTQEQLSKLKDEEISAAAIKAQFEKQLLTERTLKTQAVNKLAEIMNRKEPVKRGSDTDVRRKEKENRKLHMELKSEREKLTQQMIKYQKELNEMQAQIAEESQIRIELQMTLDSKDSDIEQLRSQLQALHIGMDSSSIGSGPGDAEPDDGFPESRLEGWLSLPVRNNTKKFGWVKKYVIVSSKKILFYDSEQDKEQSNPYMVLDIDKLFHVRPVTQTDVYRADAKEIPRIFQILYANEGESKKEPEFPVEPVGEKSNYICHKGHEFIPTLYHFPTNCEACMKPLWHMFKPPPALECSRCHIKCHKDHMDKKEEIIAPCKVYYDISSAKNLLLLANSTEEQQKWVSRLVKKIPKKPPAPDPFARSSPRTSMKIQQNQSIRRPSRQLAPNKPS

SMILES	IC50 [nM]
CC(C)(C)NCc1ccc(C(=O)Nc2ccc(Oc3ccnc4[nH]ccc34)c(F)c2)cc1 [Example 15]	49
Cc1c[nH]c2nccc(Oc3ccc(NC(=O)CNC(C)(C)C)cc3F)c12 [Example 23]	12
CN(C)CCNC(=O)Nc1ccc(Oc2ccnc3[nH]ccc23)c(F)c1 [Example 40]	27
CN(C)CCOC(=O)Nc1ccc(Oc2ccnc3[nH]ccc23)c(F)c1 [Example 41]	20

From patent US20080249105A1, “Pyrrolopyridine-Substituted Benzol Derivatives for Treating Cardiovascular Diseases” (Bayer Healthcare AG, priority 2003, published 2008)
